Experimental data published in paper PMC11334571, “EpCAM-targeted betulinic acid analogue nanotherapy improves therapeutic efficacy and induces anti-tumorigenic immune response in colorectal cancer tumor microenvironment” (Journal of Biomedical Science, 2024).

Columns and labels:
[1] = system: DMH-induced CRC; test: In vivo antitumor efficacy, Ki67 immunohistochemistry of colon; set-up: species or system Swiss albino mice; dose or concentration left out as unconfirmed; conditions: CRC mice
Procedure: Sprague–Dawley (SD) rats (body weight = 140–160 g) and Swiss albino mice (body weight = 20–25 g) of either sex (male:female = 1:1) were selected for the chemical-induced colorectal carcinoma model. The study plan was prepared as per the guidelines of the Committee for the Purpose of Control and Supervision of Experiments on Animals (CPCSEA), India (JU-AEC; Registration Number: 1805/GO/Re/S/15/CPCSEA) and was sanctioned by the Animal Ethics Committee (AEC), Jadavpur University, (Protocol approval. no.: AEC/PHARM/1701/3/2018). The animals were procured from the National Institute of Nutrition (Hyderabad, India) and were habituated in housing conditions of 25 °C ± 1 °C temperature, 55% ± 5% relative humidity, and normal day/night photoperiod for at least 2 weeks before conducting any experiment. For the development of CRC-bearing mice, Dimethylhydrazine (DMH) was injected intraperitoneally at a dose of 20 mg/kg body weight once a week for 12 weeks. In contrast, for generating CRC-bearing rats, DMH was administered intraperitoneally at a dose of 25 mg/kg body weight once a week for 9 weeks, as described previously.
Evaluating in vivo antitumor efficacy with histopathological observations is essential to preclinical studies in cancer research and drug development. […] Ki67-positive and -negative cells were counted in microscopic images taken after staining using QuPath-0.3.2 software.

[2] = system: HT-29 cells; test: Colony formation assay; assay type: cell-based, human; conditions: HT-29, treated every 3 days for 12–14 days
Procedure: The colony formation assay, also known as the clonogenic assay, is a cell biology technique used to evaluate the ability of individual cells to undergo unlimited division and form colonies. This assay is commonly employed in cancer research, radiation biology, and drug screening studies to assess cells' proliferative potential and sensitivity to various treatments or conditions. A clonogenic assay was conducted here to evaluate the inhibitory effect of the free drug and nanoencapsulated therapies on the tumor-initiating capacity or colony formation potential of the colorectal cancer cells. About 500 cells were seeded for both the cell lines HT-29 and HCT116 in each well of a 12-well plate, followed by incubation overnight. The cells were treated with 2c, 2cNP, and Apt-2cNP every 3 days for a total of 12–14 days except for the control groups. After completion of drug incubation, the treated medium was withdrawn, and the cells were washed with PBS. 10% acetic acid (in methanol) was used as a fixation buffer, and colonies were stained with crystal violet solution (0.5% crystal violet in 25% methanol) and washed with PBS three times to remove excess dye. […] After imaging, the crystal violet stained colonies were dissolved in 10% acetic acid solution for 15 min under shaking conditions, and the absorbance of the supernatant was detected using a plate reader at 510 nm.

[3] = Pharmacokinetic evaluation; assay type: in vivo; conditions: CRC-bearing mice, intravenous 25 mg/kg, plasma 2c
Procedure: Pharmacokinetic evaluation informs the time course of drug absorption, distribution, metabolism, and elimination (ADME) within the body. It is a crucial aspect of drug development and is vital in understanding how a drug behaves in vivo. 2c, 2cNP, and Apt-2cNP were injected separately into CRC-bearing mice through intravenous injection (dose: 25 mg/kg). Blood samples were withdrawn at 4 h, 8 h, 10 h, 12 h, 24 h, 48 h, 72 h, and 96 h post-injection, and plasma concentrations of 2c for all samples were determined using LC–MS following a previously described method. A plasma concentration vs time curve was generated using GraphPad Prism (version 5.0). Cmax and Tmax were determined directly from the curve. AUC, AUMC, and AUC0–∞ were calculated using the trapezoidal method. t1/2, MRT, and clearance values were calculated using standard formulas.

[4] = system: CRC tumor microenvironment; test: Cytokines (ELISA) and immune cells (flow cytometry) in CRC tumor microenvironment; assay type: in vivo; conditions: CRC mice, 24 h and 48 h
Procedure: Colorectal tissues were isolated from the CRC-bearing mice before and after treatment with 2c, 2cNP, and Apt-2cNP, followed by washing with ice-cold PBS. Colons were then minced into small pieces and agitated with predigestion buffer (HBSS, 10 mM HEPES, 5 mM EDTA, 1 mM DTT, 5% FBS) for 20 min in a 37 °C incubator-shaker. The single cells suspension from the colonic tissues was prepared using a 100 µm cell strainer. The remaining tissue pieces collected from the cell strainer were then cut into finer fragments and treated with digestion solution (HBSS, 10 mM EDTA, 0.5 mg/ml collagenase D, 3 mg/ml dispase II and 5% FBS) in a 37 °C incubator-shaker for 30 min. The dissociated cells from the tissues were collected again through a 100 µm cell strainer. All the single-cell suspensions were pooled together and centrifuged using Percoll gradient. The lymphocytes were suspended in 4 ml of 40% Percoll solution and layered over 12 ml of 80% Percoll solution. Centrifugation was then carried out without a break at 1000 g for 20 min. The T cells were collected from the liquid interphase and resuspended in PBS or RPMI 1640 medium for further experiments.
To analyze cytokine levels (TNFα, IFNγ, and IL-10) and all other ELISA assays, sandwich ELISA kits were used. […] The reading was monitored using a multi-plate reader and then compared with the standard curve for actual measurement of the cytokine level. […]

[5] = system: CRC cancer tissue; test: Gene expression by qPCR in CRC tumor tissue; assay type: in vivo, mice; conditions: CRC mouse model
Procedure: Gene expression analysis by quantitative real-time polymerase chain reaction (qPCR) is widely used in molecular biology and genetics research. qPCR allows the detection and quantification of specific RNA transcripts, providing insights into the expression levels of genes under various conditions or in different cell types or tissues. The expression of several genes related to apoptosis, autophagy, DNA synthesis, and inflammatory pathways were analyzed after treatment with 2c, 2cNP, and Apt-2cNP to understand the molecular mechanism behind their cytotoxic effects and to determine differences between aptamer-conjugated and unconjugated nanoparticles. Total RNA from CRC cancer tissue before and after treatment was isolated after completion of treatment time using TRIzol, following the manufacturer’s protocol. The RNA was checked for quality by measuring the […] ratio and quantified in a NanoDrop instrument. Then, cDNAs were prepared using RevertAid First Strand cDNA synthesis kit (ThermoFisher) followed by amplified using SYBR Green Master Mix (BioRad) in a thermal cycler (Veriti 96-well, Applied Biosystems, Massachusetts, USA). Relative transcript abundance values obtained from the instrument were plotted in bar diagrams. A total of 12 genes (caspase 3, Bcl-2, Bcl-XL, Bax, Atg5, LC3B, Beclin, p62, NF-κB, APC, p53, and TOP2) were analyzed for each sample. Sequences of the primers used (both forward primer and reverse primer) for each gene are in Supplementary Table T2.

For `C=C(C)[C@@H]1CC[C@]2(C(=O)O)CC[C@]3(C)[C@H](CC[C@@H]4[C@@]5(C)CC[C@H](OC(=O)Cn6cc(CO)nn6)C(C)(C)[C@@H]5CC[C@]43C)[C@@H]12` [2c, (3S)-3-[2-(4-hydroxymethyl-1H-1,2,3-triazol-1-yl)acetyloxy]-lup-20(29)-en-28-oic acid], the “Ki67-positive cells in colon” value [1] was 58.88 ± 1.2%, the “Inhibition of colony formation” value [2] was “moderate prohibition in colony formation” and the “AUC 0-∞” value [3] was 380 ± 44 ng·h/mL. The AUC last [3] was 376 ± 42 ng·h/mL, the AUMC [3] was 8381 ± 1644 ng.h2/ml and the Clearance [3] was 333 ± 30 mL/h. It also gave a Cmax [3] of 23.5 ± 0.55 ng/mL, an MRT [3] of 22.3 ± 1.72 h and a Tmax [3] of 1 min. The Vd [3] was 2.88 ± 0.15 L, the t1/2 [3] was 6 ± 0.5 h and the “Percentages of CD4 and CD8 T cells in TME” value [4] was “did not change”. For the same molecule, the “Topoisomerase-II RNA level” value ([5]; 24 h and 48 h after treatment) was “time-dependent decrease”, the “RNA expression of anti-apoptotic genes (Bcl-2 and Bcl-XL)” value ([5]; 24 h and 48 h treatment) was “decrease” and the “RNA expression of pro-apoptotic genes (caspase 3 and Bax)” value ([5]; 24 h and 48 h treatment) was “time-dependent increase”. For the same molecule, the “RNA expression of autophagy-related genes (Atg5, LC3B, Beclin)” value ([5]; 24 h or 48 h after treatment) was “time-dependent increase” and the p62 expression ([5]; 24 h or 48 h after treatment) was “decrease”.
